Data taken from article PMC11966747, “Next Generation Risk Assessment of Acute Neurotoxicity from Organophosphate Exposures Using the In Vitro–In Silico Derived Dietary Comparator Ratio” (Environmental Science & Technology, 2025).
Where two headings read alike, the source gives them in different places.

Experiments:
[1] = QSAR-based prediction; ref Punt et al. 2022; Moerenhout et al. 2024; cited from earlier work
[2] = target: T1, erythrocyte AChE (Homo sapiens, UniProt P22303); conditions: cited from earlier work; for reported or expected adverse health outcome: ref Table S2
[3] = target: T1, erythrocyte AChE; test: Exposure Activity Ratio (EAR) and Dietary Comparator Ratio (DCR) calculation; parameters: from tissue; host or cells: human whole peripheral blood (erythrocytes), K2EDTA anticoagulant; conditions: for calculated DCR value / calculated EARtest value: human
Experimental: The DCR value for an exposure scenario was calculated as the ratio of EARtest and EARcomparator (eq 1). The EARtest is scenario-specific and was defined with the IC50 of the tested organophosphate oxon for in vitro erythrocyte AChE inhibition and the PBK model-simulated CBmaxoxon at the defined exposure level (eq 2).
The DCR-based predictions were evaluated by comparing the obtained DCR results with actual knowledge of the adverse health effects reported for the respective exposure scenarios. Adverse effects cannot be ruled out for human exposure scenarios with a DCR result greater than 1, while exposure scenarios with a DCR result less than or equal to 1 are considered to raise no safety concern.[18]−[20] Once validated as an adequate predicting tool, the DCR approach was applied for evaluating the safety of exposure scenarios, for which no information on the resulting toxic outcomes was reported at the defined dose levels for humans.

[4] = target: T1, erythrocyte AChE; test: biochemical; format: biochemical; parameters: from tissue; host or cells: human whole peripheral blood (erythrocytes), K2EDTA anticoagulant
Experimental: Ethanol (UPLC/MS grade) was ordered from Biosolve (Valkenswaard, The Netherlands). Ultrapure water used for experiments was prepared with a Sartorius Arium Pro ultrapure water system (Göttingen, Germany). Human whole peripheral blood with K2EDTA as an anticoagulant was used for the in vitro AChE inhibition assay. K2EDTA acts as an inhibitor to the paraoxonase 1 (PON1) enzyme,[23] preventing the underestimation of the inhibition potential of organophosphate oxons due to the nontarget clearance by PON1 present in the blood samples.
Inhibition of erythrocyte AChE by the organophosphate oxon or the corresponding oxon metabolite of an organothiophosphate was measured in vitro using the method previously described.[12] The ethanolic stock solution of the test oxon was first diluted 100 times with sodium phosphate buffer (100 mM, pH 7.4), and 10 μL of the diluted solution was added to 90 μL of human whole blood sample in a 48-wells flat-bottom transparent plate (Greiner Bio-One, The Netherlands). After a 30 min incubation at room temperature, the blood samples were then diluted 20 times with ultrapure water containing 0.03% Triton-X 100 (v/v), and 20 μL of the Triton-diluted blood was incubated for 20 min following the addition of 460 μL of DTNB and 20 μL of ethopropazine (an inhibitor to plasma butyrylcholinesterase (BuChE)). After that, 100 μL of ATC was added (final concentrations of ethopropazine, DTNB, and ATC were 20 μM, 1 mM, and 1 mM, respectively), and the absorbance at 436 nm was measured continuously to detect the remaining AChE activity. Controls were carried out by replacing the test compound with sodium phosphate buffer to correct for any background absorbance.
The benchmark response (BMR) of 5% for erythrocyte AChE inhibition is a conservative end point for deriving an effect level, since regulatory bodies usually use a higher BMR (i.e., 10% or 20%) for risk assessment of acute OP pesticide exposure.[24],[25] The European Food Safety Authority (EFSA) Web tool (https://efsa.openanalytics.eu/) integrated with the R package PROAST (version 70.0) was employed for the BMC analysis (see Supporting Information).

[5] = target: T1, erythrocyte AChE; parameters: from tissue; host or cells: human whole peripheral blood (erythrocytes), K2EDTA anticoagulant; method as in PMID 38008925; conditions: human blood; read-out: IC50, erythrocyte AChE inhibition; cited from earlier work
[6] = 1 mg/kg BW single oral, a volunteer, ref APVMA. 2000 (original data of Brown. 1966)
[7] = human whole blood, BMC analysis, PROAST model averaging

T1 sequence (P22303 32-617 isoform P22303-2 limits assumed): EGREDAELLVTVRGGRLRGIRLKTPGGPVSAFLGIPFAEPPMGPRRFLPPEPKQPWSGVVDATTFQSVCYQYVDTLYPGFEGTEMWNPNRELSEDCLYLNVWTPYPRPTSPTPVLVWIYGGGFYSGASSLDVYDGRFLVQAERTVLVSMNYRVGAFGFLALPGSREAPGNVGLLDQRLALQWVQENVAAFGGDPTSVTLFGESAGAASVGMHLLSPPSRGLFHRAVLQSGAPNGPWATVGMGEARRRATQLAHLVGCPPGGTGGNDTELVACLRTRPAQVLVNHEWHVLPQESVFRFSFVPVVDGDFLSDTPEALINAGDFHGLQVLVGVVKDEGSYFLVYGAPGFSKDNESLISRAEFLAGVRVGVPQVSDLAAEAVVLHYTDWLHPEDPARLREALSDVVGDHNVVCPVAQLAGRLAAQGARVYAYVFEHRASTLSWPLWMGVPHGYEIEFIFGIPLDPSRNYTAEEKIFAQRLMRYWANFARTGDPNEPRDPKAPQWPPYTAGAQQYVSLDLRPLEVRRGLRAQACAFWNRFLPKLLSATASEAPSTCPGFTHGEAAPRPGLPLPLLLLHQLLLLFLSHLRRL

Structure (SMILES): CCOP(=O)(OCC)OC(=CCl)c1ccc(Cl)cc1Cl [chlorfenvinphos]
- Oral absorption rate constant [1]: 0.81 h⁻¹
- Reported concomitant effects (signs and symptoms) ([2]; 0.04 mg/kg BW (3 mg), first dose of repeated exposure study, male volunteers, ref APVMA. 2000 (original data of Hunter et al. 1972)): No toxic signs was observed
- Erythrocyte AChE inhibition [2, 6]: 40%
- Reported concomitant effects (signs and symptoms) [2, 6]: no toxic signs
- Reported erythrocyte AChE activity/inhibition [2, 6]: Decreased erythrocyte AChE
- reported or expected adverse health outcome ([2]; human, single oral 0.04 mg/kg BW, 0.04 mg/kg): negative
- reported or expected adverse health outcome ([2]; human, single oral 0.04 mg/kg BW, listed as Chlorfenvinphos, 0.04 mg/kg): No
- reported or expected adverse health outcome ([2]; human, single oral 1 mg/kg BW, listed as Chlorfenvinphos, 1 mg/kg): No
- calculated DCR value ([3]; single oral 0.04 mg/kg BW): 3.8 × 10^–3
- calculated EARtest value ([3]; single oral 0.04 mg/kg BW): 1.5 × 10^–4
- calculated EARtest value ([3]; single oral 0.18 mg/kg BW): 6.8 × 10^–4
- calculated DCR value ([3]; single oral 1 mg/kg BW): 0.098
- calculated EARtest value ([3]; single oral 1 mg/kg BW): 3.9 × 10^–3

Structure (SMILES): CCOP(=O)(OCC)Oc1nc(Cl)c(Cl)cc1Cl [chlorpyrifos oxon]
- EARcomparator ([3]; BMCL05/IC50 of chlorpyrifos oxon): 0.039
- BMCL05 (lower 95% confidence limit of benchmark concentration for 5% erythrocyte AChE inhibition) [4, 7]: 0.015 µM
- BMCU05 (upper 95% confidence limit of benchmark concentration for 5% erythrocyte AChE inhibition) [4, 7]: 0.10 µM

Structure (SMILES): CCOP(=S)(OCC)Oc1nc(Cl)c(Cl)cc1Cl [chlorpyrifos]
- Oral absorption rate constant [1]: 1.01 h⁻¹
- no-observed-adverse-effect level (NOAEL) for toxic signs and symptoms ([2]; human volunteers, fasted overnight, single oral dose): 2 mg/kg BW
- inhibition of erythrocyte AChE ([2]; human, in vivo, po, 2 mg/kg): 28%
- Erythrocyte AChE inhibition ([2]; human, in vivo): 28%
- reported or expected adverse health outcome ([2]; human, single oral 0.01 mg/kg BW, 0.01 mg/kg): negative
- reported or expected adverse health outcome ([2]; human, single oral 0.01 mg/kg BW, listed as Chlorpyrifos, 0.01 mg/kg): No
- reported or expected adverse health outcome ([2]; human, single oral 0.012 mg/kg BW, 0.012 mg/kg): negative
- reported or expected adverse health outcome ([2]; human, single oral 0.012 mg/kg BW, listed as Chlorpyrifos, 0.012 mg/kg): No
- reported or expected adverse health outcome ([2]; human, single oral 0.03 mg/kg BW, 0.03 mg/kg): negative
- reported or expected adverse health outcome ([2]; human, single oral 0.03 mg/kg BW, listed as Chlorpyrifos, 0.03 mg/kg): No
- reported or expected adverse health outcome ([2]; human, single oral 0.1 mg/kg BW, 0.1 mg/kg): negative
- reported or expected adverse health outcome ([2]; human, single oral 0.1 mg/kg BW, listed as Chlorpyrifos, 0.1 mg/kg): No
- reported or expected adverse health outcome ([2]; human, single oral 0.5 mg/kg BW, 0.5 mg/kg): negative
- reported or expected adverse health outcome ([2]; human, single oral 0.5 mg/kg BW, listed as Chlorpyrifos, 0.5 mg/kg): No
- reported or expected adverse health outcome ([2]; human, single oral 1 mg/kg BW, 1 mg/kg): negative
- reported or expected adverse health outcome ([2]; human, single oral 1 mg/kg BW, listed as Chlorpyrifos, 1 mg/kg): No
- reported or expected adverse health outcome ([2]; human, single oral 2 mg/kg BW, listed as Chlorpyrifos, 2 mg/kg): No
- reported or expected adverse health outcome ([2]; human, single oral 214 mg/kg BW, 214 mg/kg): positive
- reported or expected adverse health outcome ([2]; human, single oral 214 mg/kg BW, listed as Chlorpyrifos, 214 mg/kg): Yes
- reported or expected adverse health outcome ([2]; human, single oral 300 mg/kg BW, 300 mg/kg): positive
- reported or expected adverse health outcome ([2]; human, single oral 300 mg/kg BW, listed as Chlorpyrifos, 300 mg/kg): Yes
- calculated DCR value ([3]; single oral 0.01 mg/kg BW): 4.6 × 10^–3
- calculated EARtest value ([3]; single oral 0.01 mg/kg BW): 1.8 × 10^–4
- calculated EARtest value ([3]; single oral 0.012 mg/kg BW): 2.2 × 10^–4
- calculated DCR value ([3]; single oral 0.03 mg/kg BW): 0.014
- calculated EARtest value ([3]; single oral 0.03 mg/kg BW): 5.4 × 10^–4
- calculated DCR value ([3]; single oral 0.1 mg/kg BW): 0.046
- calculated EARtest value ([3]; single oral 0.1 mg/kg BW): 1.8 × 10^–3
- calculated DCR value ([3]; single oral 0.5 mg/kg BW): 0.23
- calculated EARtest value ([3]; single oral 0.5 mg/kg BW): 9.2 × 10^–3
- calculated DCR value ([3]; single oral 1 mg/kg BW): 0.48
- calculated EARtest value ([3]; single oral 1 mg/kg BW): 0.019
- calculated DCR value ([3]; single oral 2 mg/kg BW): 1.0
- calculated EARtest value ([3]; single oral 2 mg/kg BW): 0.040
- calculated DCR value ([3]; single oral 214 mg/kg BW): 38
- calculated EARtest value ([3]; single oral 214 mg/kg BW): 1.50
- calculated DCR value ([3]; single oral 300 mg/kg BW): 40
- calculated EARtest value ([3]; single oral 300 mg/kg BW): 1.58

Structure (SMILES): CCOP(=O)(OCC)Oc1cc(C)nc(C(C)C)n1 [diazoxon]
- IC50 [4]: 1.82 µM

Structure (SMILES): COP(=O)(OC)Oc1ccc([N+](=O)[O-])c(C)c1 [fenitrooxon]
- IC50 [5]: 0.84 µM

Structure (SMILES): COP(=S)(OC)Oc1ccc([N+](=O)[O-])cc1 [methyl parathion]
- Oral absorption rate constant [1]: 0.58 h⁻¹
- reported blood concentration ([2]; 286 mg/kg BW (20 g) acute oral, person, ref Luzhnikov et al. 1977): 3 mg/L
- reported or expected adverse health outcome ([2]; human, single oral 0.003 mg/kg BW, 0.003 mg/kg): negative
- reported or expected adverse health outcome ([2]; human, single oral 0.003 mg/kg BW, listed as Methyl parathion, 0.003 mg/kg): No
- reported or expected adverse health outcome ([2]; human, single oral 0.029 mg/kg BW, 0.029 mg/kg): negative
- reported or expected adverse health outcome ([2]; human, single oral 0.029 mg/kg BW, listed as Methyl parathion, 0.029 mg/kg): No
- reported or expected adverse health outcome ([2]; human, single oral 0.057 mg/kg BW, 0.057 mg/kg): negative
- reported or expected adverse health outcome ([2]; human, single oral 0.057 mg/kg BW, listed as Methyl parathion, 0.057 mg/kg): No
- reported or expected adverse health outcome ([2]; human, single oral 0.30 mg/kg BW, 0.3 mg/kg): negative
- reported or expected adverse health outcome ([2]; human, single oral 0.30 mg/kg BW, listed as Methyl parathion, 0.3 mg/kg): No
- reported or expected adverse health outcome ([2]; human, single oral 26 mg/kg BW, 26 mg/kg): positive
- reported or expected adverse health outcome ([2]; human, single oral 26 mg/kg BW, listed as Methyl parathion, 26 mg/kg): Yes
- calculated DCR value ([3]; single oral 0.003 mg/kg BW): 0.092
- calculated EARtest value ([3]; single oral 0.003 mg/kg BW): 3.6 × 10^–3
- calculated DCR value ([3]; single oral 0.029 mg/kg BW): 0.89
- calculated EARtest value ([3]; single oral 0.029 mg/kg BW): 0.035
- calculated DCR value ([3]; single oral 0.057 mg/kg BW): 1.8
- calculated EARtest value ([3]; single oral 0.057 mg/kg BW): 0.069
- calculated DCR value ([3]; single oral 0.30 mg/kg BW): 9.2
- calculated EARtest value ([3]; single oral 0.30 mg/kg BW): 0.36
- calculated DCR value ([3]; single oral 26 mg/kg BW): 927
- calculated EARtest value ([3]; single oral 26 mg/kg BW): 36.59

Structure (SMILES): CCCSP(=O)(OCC)Oc1ccc(Br)cc1Cl (stereo not shown) [profenofos]
- Oral absorption rate constant [1]: 0.90 h⁻¹
- Reported concomitant effects (signs and symptoms) ([2]; 1600 mg/kg BW (112 g) acute oral, person, ref Seno et al. 1998): Died
- reported or expected adverse health outcome ([2]; human, single oral 1600 mg/kg BW, 1600 mg/kg): positive
- reported or expected adverse health outcome ([2]; human, single oral 1600 mg/kg BW, listed as Profenofos, 1600 mg/kg): Yes
- calculated DCR value ([3]; single oral 1600 mg/kg BW): 272
- calculated EARtest value ([3]; single oral 1600 mg/kg BW): 10.75
- IC50 [4]: 94.5 µM
